These results are taken from PMC9823735, “Inhibition of Leishmania infantum Trypanothione Reductase by New Aminopropanone Derivatives Interacting with the NADPH Binding Site” (Molecules, 2023).

The target of assay [1] is T1, LiTR (Leishmania infantum, UniProt A4HSF7).
T1 construct: LiTR has been expressed and purified as reported previously; made in house
The assay is described as follows: LiTR enzymatic inhibition assay (NADPH oxidation, absorbance at 340 nm). The settings on record: for activity at 100 µM: read-out: LiTR Activity (% at 100 µM). In kind it is biochemical. The procedure: (§1) Furthermore, the best acting compound, namely 2b, reduced the activity of the enzyme by 47%.
Enzymatic inhibition assays were performed at 25 °C using a JASCO V650 spectrophotometer equipped with a JASCO EHC-716 Peltier unit. LiTR (50 nM) was mixed with 100 μM of the compounds and 150 μM trypanothione in 50 mM HEPES pH 7.4, 40 mM NaCl, and incubated at 25 °C for 3 min. The reaction was started upon addition of 100 μM NADPH. Oxidation of the NADPH was followed as a decrease in absorbance at 340 nm. The best inhibitor candidate (2b) was then tested under the same conditions at concentrations ranging from 0.1 to 200 μM to determine the IC50. LiTR activity was determined as V0(compound)/V0(control)*100, where V0 is the initial velocity. The IC50 was determined using a dose response logistic equation defined by the Kaleidagraph software as ymin + (ymax-ymin)/(1 + (x/IC50)^slope).

The target in assay [2] is T2, human homolog glutathione reductase (Homo sapiens, UniProt P00390).
T2 construct: purchased Sigma Aldrich
T2 sequence (P00390 44-522): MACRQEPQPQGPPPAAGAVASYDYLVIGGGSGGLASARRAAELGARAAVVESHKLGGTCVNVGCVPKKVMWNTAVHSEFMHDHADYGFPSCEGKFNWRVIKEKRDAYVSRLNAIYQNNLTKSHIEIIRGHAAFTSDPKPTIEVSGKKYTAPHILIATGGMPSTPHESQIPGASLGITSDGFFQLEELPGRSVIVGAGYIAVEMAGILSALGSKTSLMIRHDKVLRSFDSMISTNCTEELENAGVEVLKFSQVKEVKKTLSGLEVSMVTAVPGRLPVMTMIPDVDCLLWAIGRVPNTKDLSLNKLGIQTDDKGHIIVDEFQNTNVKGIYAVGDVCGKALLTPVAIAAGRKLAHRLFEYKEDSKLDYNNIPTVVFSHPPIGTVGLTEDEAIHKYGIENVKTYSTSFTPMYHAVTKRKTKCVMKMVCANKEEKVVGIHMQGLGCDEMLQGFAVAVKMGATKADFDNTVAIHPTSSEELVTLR
In words: Glutathione reductase inhibition assay (NADPH oxidation, absorbance at 340 nm). In kind it is biochemical. On the procedure:
as §1
Figure S9: Conformation of compound 3c with the lowest energy in the most populated cluster.
Figure S10. Inhibition kinetics of the glutathione reductase in the presence of compound 2b. Inhibition assays were performed at 25 °C using a JASCO V650 spectrophotometer equipped with a JASCO EHC-716 Peltier unit. Glutathione Reductase (GR) 50 nM, (purchased from Sigma Aldrich) was mixed with varying concentrations of compound 2b (0.1 to 200 μM) and 150 μM oxidized glutathione in 50 mM HEPES pH 7.4, 40 mM NaCl; and incubated at 25°C for 3 minutes. The reaction was started upon addition of 100 μM NADPH. Oxidation of NADPH was followed as a decrease in absorbance at 340 nm. GR activity was determined as V0(compound)/V0(control)*100 where V0 is the initial velocity. The IC50 was determined using a dose response logistic equation defined by the Kaleidagraph software as ymin+(ymax-ymin)/(1+(x/IC50)^slope). […]

The test system of another assay is hGR. On the set-up: method as in PMID 30475811. The following applies: cited from earlier work.
Assay [3] concerns L. infantum promastigotes. On the set-up: method as in PMID 30475811. The following applies: read-out: IC50 anti-proliferative effect; cited from earlier work.
For assay [4], the target named is T1, LiTR. On the set-up: method as in PMID 30475811. The following applies: residual LiTR activity with 100 μM inhibitor; reference compound; cited from earlier work.

T1 sequence (A4HSF7 1-491): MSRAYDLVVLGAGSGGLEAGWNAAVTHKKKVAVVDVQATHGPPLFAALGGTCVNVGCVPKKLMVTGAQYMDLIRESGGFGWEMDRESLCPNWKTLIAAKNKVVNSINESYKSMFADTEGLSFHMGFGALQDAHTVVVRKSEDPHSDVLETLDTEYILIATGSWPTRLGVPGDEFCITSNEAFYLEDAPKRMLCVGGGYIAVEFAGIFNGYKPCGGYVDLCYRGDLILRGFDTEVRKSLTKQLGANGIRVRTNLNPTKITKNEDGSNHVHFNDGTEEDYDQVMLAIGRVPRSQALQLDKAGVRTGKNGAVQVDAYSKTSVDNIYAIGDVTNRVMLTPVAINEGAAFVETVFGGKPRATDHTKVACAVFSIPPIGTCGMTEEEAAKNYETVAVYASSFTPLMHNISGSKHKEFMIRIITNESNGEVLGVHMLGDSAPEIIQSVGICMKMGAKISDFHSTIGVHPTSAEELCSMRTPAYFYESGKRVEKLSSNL

For `CCN(CC)CCOC(=O)c1ccc(NCCC(=O)c2ccc(F)cc2)cc1` [Compound 2e, 2-(Diethylamino)ethyl 4-((3-(4-fluorophenyl)-3-oxopropyl)amino)benzoate], on LiTR [1], the activity at 100 µM is 60.5 ± 4.1%.
With `CCN(CC)CCOC(=O)c1ccc(NCCC(=O)c2ccc(-c3ccc(Cl)cc3)cc2)cc1` [Compound 2b, 2-(Diethylamino)ethyl 4-((3-(4’-chloro-[1,1’-biphenyl]-4-yl)-3-oxopropyl)amino)benzoate], the “residual LiTR activity” value at LiTR [1] (100 μM compound) is 47%. Further, the IC50 was 65 µM at LiTR [1] (25 °C, 150 μM trypanothione, 100 μM NADPH, average of three experiments) and over 150 µM in assay [2] (25 °C, 50 nM GR, 150 μM oxidized glutathione, 100 μM NADPH). The activity at 100 µM on LiTR [1] was 47 ± 9.7%. Further, the “IC50 on glutathione reductase relative to IC50 on TR (selectivity)” value in assay [2] (GR versus LiTR) is given as “more than two-fold higher”.
For the compound `CCN(CC)CCOC(=O)c1ccc(NCCC(=O)c2ccc(-c3ccccc3)cc2)cc1` [Compound 2a, 2-(Diethylamino)ethyl 4-((3-([1,1’-biphenyl]-4-yl)-3-oxopropyl)amino)benzoate], on LiTR [1], the activity at 100 µM came out at 55.4 ± 13.3%.
Take `CCN(CC)CCOC(=O)c1ccc(NCCC(=O)c2ccc([N+](=O)[O-])cc2)cc1` [Compound 1, 2-(diethylamino)ethyl 4-((3-(4-nitrophenyl)-3-oxopropyl)amino)benzoate]: the IC50 is over 85 µM with hGR and 12.4 µM in assay [3]. Also, the “LiTR Activity (% at 100 µM)” value at LiTR [4] was <10.0 [10] %.
On to `CCN(CC)CCNC(=O)c1ccc(NCCC(=O)c2ccc(-c3ccccc3)cc2)cc1` [Compound 3a, 4-((3-([1,1’-Biphenyl]-4-yl)-3-oxopropyl)amino)-N-(2-(diethylamino)ethyl)benzamide], for which, on LiTR [1], the activity at 100 µM is 68.4 ± 6.7%.
Regarding `CCN(CC)CCOC(=O)c1ccc(NCCC(=O)c2ccccc2)cc1` [Compound 2d, 2-(Diethylamino)ethyl 4-((3-oxo-3-phenylpropyl)amino)benzoate], the activity at 100 µM at LiTR [1] was found to be 73.8 ± 4.4%.
On to `CCN(CC)CCNC(=O)c1ccc(NCCC(=O)c2ccc(Br)cc2)cc1` [Compound 3c, 4-((3-(4-Bromophenyl)-3-oxopropyl)amino)-N-(2-(diethylamino)ethyl)benzamide], for which the activity at 100 µM on LiTR [1] came to 87.3 ± 1.9%.
In the case of `CCN(CC)CCOC(=O)c1ccc(NCCC(=O)c2ccc(Br)cc2)cc1` [Compound 2c, 2-(Diethylamino)ethyl 4-((3-(4-bromophenyl)-3-oxopropyl)amino)benzoate], the activity at 100 µM on LiTR [1] was 73.8 ± 4.6%.
`CCN(CC)CCNC(=O)c1ccc(NCCC(=O)c2ccc(-c3ccc(Cl)cc3)cc2)cc1` [Compound 3b, 4-((3-(4’-Chloro-[1,1’-biphenyl]-4-yl)-3-oxopropyl)amino)-N-(2-(diethylamino)ethyl)benzamide]: on LiTR [1], the activity at 100 µM amounted to 59.4 ± 2.4%.
The same measure, in the same setting: for `CCN(CC)CCOC(=O)c1ccc(N(CCC(=O)c2ccc(F)cc2)CCC(=O)c2ccc(F)cc2)cc1` [Compound 2f, 2-(Diethylamino)ethyl 4-(bis(3-(4-fluorophenyl)-3-oxopropyl)amino)benzoate] the value was 75 ± 2.4%.

Broadly, the IC50 is the concentration needed to halve the response being measured.
